# Test results reported in patent publication US20250127768A1, “THERAPEUTIC TARGETING OF INOSITOL PYROPHOSPHATE SYNTHESIS IN CANCER” (The Broad Institute, Inc., priority 2022, published 2025).
# Experiments:
# ovarian cancer cell line = test: cell viability in ovarian cancer cell line with CRISPR guide sequences (FIG. 6B); format: cell-based; details: high doses; specificity to XPR1-dependent cell lines
# Source text: (§1) FIG. 6A-FIG. 6B—IP6K inhibitors. FIG. 6A. Graph showing phosphate efflux in an ovarian cancer cell line treated with TNP or RBD_00. FIG. 6B. Graph showing cell viability in an ovarian cancer cell line treated with TNP or RBD_00 and the indicated CRISPR guide sequences.
# [1] = test system: XPR1-dependent cell lines (RMGI); test: phosphate efflux in ovarian cancer cell line (FIG. 6A); format: cell-based; details: as compared to RBD (protein inhibitor of XPR1)
# Source text: as §1
structure (smiles),measurement,setting,value
"O=[N+]([O-])c1ccc(CNc2nc(NCc3cccc(C(F)(F)F)c3)nc3nc[nH]c23)cc1 [TNP, N2-(m-(trifluoromethyl)benzyl) N6-(p-nitrobenzyl)purine]",proliferation effects,ovarian cancer cell line,"Proliferation effects were observed at high doses of TNP, but the effects were not specific to XPR1-dependent cell lines"
same,phosphate efflux,[1],did not observe a decrease in phosphate efflux
